Measured values: the OligoGym collection
Bases are written 5' to 3'; sugars and linkages follow in the same order, as letters with counts (s phosphorothioate, o phosphodiester; PS: all linkages phosphorothioate). The collection does not say whether C is 5-methylated. l = locked nucleic acid (LNA); d = 2'-deoxy (DNA)

The sequences below were run against Tau (assay: rat primary cortical neurons, FLIPR, 25 uM ASO).
With CCCAGCGTGATCTT (sugars l3 d8 l3, PS) the calcium oscillation score was 46 % of control.
CCCAGCGTGATCTTCC (sugars l3 d10 l3, PS) was tested, and the calcium oscillation score was 4.6 % of control.
In the case of “CCCAGCGTGATCTTCCATCA (sugars l3 d14 l3, PS)”, the calcium oscillation score was 104 % of control.
With “CCCAGCGTGATCTTCCATCA (sugars l4 d11 l5, PS)” the calcium oscillation score was 104 % of control.
With “CCCAGCGTGATCTTCCATCA (sugars l5 d11 l4, PS)” the calcium oscillation score was 106 % of control.
For “CCCAGCGTGATCTTCCATCA (sugars ldlllddddddddddlldll, PS)”, the calcium oscillation score was 124 % of control.
“CCCAGCGTGATCTTCCATCA (sugars lldllddddddddddlldll, PS)” was tested, and the calcium oscillation score was 100 % of control.
For “CCCATCAATTTGGAAAGATG (sugars l3 d14 l3, PS)”, the calcium oscillation score was 58.1 % of control.
With “CCCATCTTAATTCATTTAAT (sugars l2 d14 l4, PS)” the calcium oscillation score was 90.1 % of control.
For “CCCATTCAGATCTATCC (sugars l2 d13 l2, PS)”, the calcium oscillation score was 102 % of control.
CCCATTTACAATTCAG (sugars l3 d10 l3, PS) was tested, and the calcium oscillation score was 52.6 % of control.
“CCCCACCCAAACTCCAAG (sugars l1 d15 l2, PS)” was tested, and the calcium oscillation score was 46.2 % of control.
With “CCCCACTTTTAATTAAA (sugars l4 d10 l3, PS)” the calcium oscillation score was 99.7 % of control.
For “CCCCACTTTTAATTAAAT (sugars l3 d11 l4, PS)”, the calcium oscillation score was 95.2 % of control.
In the case of “CCCCACTTTTAATTAAATTT (sugars l3 d15 l2, PS)”, the calcium oscillation score was 97 % of control.
For CCCCAGACCATCAATT (sugars l2 d12 l2, PS), the calcium oscillation score was 57.7 % of control.
With “CCCCAGACCATCAATTT (sugars l2 d13 l2, PS)” the calcium oscillation score was 61.7 % of control.
With “CCCCATTCAGATCTATC (sugars l2 d13 l2, PS)” the calcium oscillation score was 98.8 % of control.
“CCCCATTTATCCTTCATG (sugars l2 d14 l2, PS)” was tested, and the calcium oscillation score was 49.4 % of control.
For “CCCCATTTTTGACATAT (sugars l2 d12 l3, PS)”, the calcium oscillation score was 73.1 % of control.
CCCCTCCATTAAGAAC (sugars l3 d11 l2, PS) was tested, and the calcium oscillation score was 68.1 % of control.
In the case of “CCCCTCCATTAAGAACCT (sugars l1 d15 l2, PS)”, the calcium oscillation score was 88.6 % of control.
In the case of CCCGAGCCAAAGCC (sugars l3 d8 l3, PS), the calcium oscillation score was 52.2 % of control.
With CCCGAGCCAAAGCCGA (sugars l3 d10 l3, PS) the calcium oscillation score was 50.6 % of control.
In the case of CCCGCCTTTAGTGATT (sugars l3 d10 l3, PS), the calcium oscillation score was 30.9 % of control.
With “CCCGCCTTTAGTGATTACAG (sugars l3 d14 l3, PS)” the calcium oscillation score was 2.38 % of control.
With “CCCGGAACTCTCAACTCCTC (sugars l3 d14 l3, PS)” the calcium oscillation score was 18.1 % of control.
In the case of “CCCGTCTTTGCTTTTACTGA (sugars l3 d14 l3, PS)”, the calcium oscillation score was 0 % of control.
In the case of CCCGTGGTCTGTCT (sugars l3 d8 l3, PS), the calcium oscillation score was 89.8 % of control.
In the case of CCCGTGGTCTGTCTTG (sugars l3 d10 l3, PS), the calcium oscillation score was 0 % of control.
In the case of CCCTAAACCATGATCT (sugars l3 d10 l3, PS), the calcium oscillation score was 89.7 % of control.
In the case of CCCTAAAGTCCCAG (sugars l3 d8 l3, PS), the calcium oscillation score was 51.4 % of control.
With CCCTAAAGTCCCAGG (sugars l3 d9 l3, PS) the calcium oscillation score was 72.4 % of control.
With CCCTAAAGTCCCAGGT (sugars l3 d10 l3, PS) the calcium oscillation score was 76.2 % of control.
In the case of CCCTAAGCTCTCACTA (sugars l2 d12 l2, PS), the calcium oscillation score was 69.1 % of control.
In the case of “CCCTCACTTTTTATTCAAC (sugars l2 d14 l3, PS)”, the calcium oscillation score was 76 % of control.
“CCCTCCCTTTAATGCCAGGC (sugars l3 d14 l3, PS)” was tested, and the calcium oscillation score was 6.04 % of control.
With CCCTGAAACCATTAAC (sugars l3 d9 l4, PS) the calcium oscillation score was 70.2 % of control.
“CCCTGAAACCATTAACT (sugars l3 d12 l2, PS)” was tested, and the calcium oscillation score was 69 % of control.
In the case of CCCTGAAAGAGGGCAG (sugars l3 d10 l3, PS), the calcium oscillation score was 18.4 % of control.
With CCCTTAATTTCACCC (sugars l3 d9 l3, PS) the calcium oscillation score was 103 % of control.
CCCTTAATTTCACCCT (sugars l3 d10 l3, PS) was tested, and the calcium oscillation score was 80.9 % of control.
In the case of “CCCTTAGACATAACACA (sugars l3 d12 l2, PS)”, the calcium oscillation score was 65.5 % of control.
In the case of “CCCTTCAACATCAGCCA (sugars l2 d13 l2, PS)”, the calcium oscillation score was 47.6 % of control.
“CCCTTGATCATATTTGTGGC (sugars l3 d14 l3, PS)” was tested, and the calcium oscillation score was 35.7 % of control.
CCCTTTCAAACCAGCA (sugars l3 d11 l2, PS) was tested, and the calcium oscillation score was 91.8 % of control.
CCGAACTGCGAGGAGC (sugars l3 d10 l3, PS) was tested, and the calcium oscillation score was 5.43 % of control.
In the case of “CCGAACTGCGAGGAGCAGCT (sugars l3 d14 l3, PS)”, the calcium oscillation score was 38.9 % of control.
CCGAATTTACACCCAA (sugars l2 d10 l4, PS) was tested, and the calcium oscillation score was 79.1 % of control.
In the case of “CCGCCTTTAGTGATTACAGG (sugars l3 d14 l3, PS)”, the calcium oscillation score was 4.03 % of control.
In the case of CCGTGGTCTGTCTT (sugars l3 d8 l3, PS), the calcium oscillation score was 20.9 % of control.
For CCGTGGTCTGTCTTGG (sugars l3 d10 l3, PS), the calcium oscillation score was 42.2 % of control.
CCTAAAGTCCCAGGTC (sugars l3 d10 l3, PS) was tested, and the calcium oscillation score was 62.9 % of control.
With “CCTAATAAAAACAATACTA (sugars l4 d11 l4, PS)” the calcium oscillation score was 62.3 % of control.
For CCTAATCCTGTGCT (sugars l3 d8 l3, PS), the calcium oscillation score was 62.6 % of control.
